Experimental data published in US9737517B2, “Pharmaceutical use of hexahydro-dibenzo[a,g]quinolizine compounds” (SHANGHAI INSTITUTE OF MATERIA MEDICA, CHINESE ACADEMY OF …, priority 2013, dated 2017).

Experiments:
[1] = target: T1, α1A-AR (Homo sapiens, UniProt P35348); assay: Calcium mobilization (Fluo-4) antagonism of phenylephrine in HEK293 cells expressing α1A-AR/Gα16; type: cell-based; details: for IC50: HEK293 α1A-AR/Gα16, calcium mobilization, phenylephrine 30 nM; for α1B/α1A: ratio of cell IC50 values, calcium mobilization
T1 construct: expressed in transfected cells; host or cells: HEK293
T1 sequence (P35348 1-466): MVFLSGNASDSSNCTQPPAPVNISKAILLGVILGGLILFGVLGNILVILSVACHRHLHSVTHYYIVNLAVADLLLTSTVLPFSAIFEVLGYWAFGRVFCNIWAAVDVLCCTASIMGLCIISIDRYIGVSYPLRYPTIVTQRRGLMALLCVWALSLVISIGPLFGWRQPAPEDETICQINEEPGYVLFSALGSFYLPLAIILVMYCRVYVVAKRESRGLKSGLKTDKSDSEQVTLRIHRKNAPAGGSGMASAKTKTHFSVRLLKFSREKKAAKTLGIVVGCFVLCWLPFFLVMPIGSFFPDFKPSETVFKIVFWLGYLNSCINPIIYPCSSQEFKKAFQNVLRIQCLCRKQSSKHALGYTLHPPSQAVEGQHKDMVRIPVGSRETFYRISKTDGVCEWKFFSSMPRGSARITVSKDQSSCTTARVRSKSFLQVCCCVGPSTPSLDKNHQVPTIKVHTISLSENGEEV
Method: (§1) HEK293 cells stably expressing α1A-AR/Gα16, α1B-AR/Gα16, α1D-AR/Gα16 were seeded in a 96-well plate, and cultured for 24 hours. Then the medium was removed and 40 μL Hank's balanced salt solution (HBSS: containing 5.4 mM KCl, 0.3 mM Na2HPO4, 0.4 mM KH2PO4, 4.2 mM NaHCO3, 1.3 mM CaCl2, 0.5 mM MgCl2, 0.6 mM MgSO4, 137 mM NaCl, 5.6 mM D-glucose, and 250 μM sulfinpyrazone, pH 7.4) containing 2 μM Fluo-4 AM was added into each well, and incubated at 37° C. for 45 min. Dye was removed and 50 μL of HBSS containing either test compound or 1% DMSO (negative control) was added. After incubation at room temperature for 10 min, Flex Station 3 microplate reader was used to read the value. At specified time points, 25 μL of agonist (phenylephrine, final concentration 30 nM) was dispensed into the well automatically using the reader and fluorescence intensity change of dye caused by intracellular calcium concentration change was detected at an excitation wavelength of 485 nm and an emission wavelength of 525 nm.
(§2) After incubation with different drugs, the reaction rate of cells to 1-AR agonist phenylephrine was calculated as follows: Reaction rate %=(D−B)/(S−B)*100%;
(§3) The reaction rate of the same drug at different doses was tested using GraphPad Prism software by non-linear regression analysis, and the dose-response curve was obtained and IC50 values was measured. Data were obtained from three separate experiments, and each experiment included three duplicate wells.

[2] = target: T2, α1B-AR (Homo sapiens, UniProt P35368); assay: Calcium mobilization (Fluo-4) antagonism of phenylephrine in HEK293 cells expressing α1B-AR/Gα16; type: cell-based; details: phenylephrine 30 nM
T2 construct: expressed in transfected cells; host or cells: HEK293
T2 sequence (P35368 1-520): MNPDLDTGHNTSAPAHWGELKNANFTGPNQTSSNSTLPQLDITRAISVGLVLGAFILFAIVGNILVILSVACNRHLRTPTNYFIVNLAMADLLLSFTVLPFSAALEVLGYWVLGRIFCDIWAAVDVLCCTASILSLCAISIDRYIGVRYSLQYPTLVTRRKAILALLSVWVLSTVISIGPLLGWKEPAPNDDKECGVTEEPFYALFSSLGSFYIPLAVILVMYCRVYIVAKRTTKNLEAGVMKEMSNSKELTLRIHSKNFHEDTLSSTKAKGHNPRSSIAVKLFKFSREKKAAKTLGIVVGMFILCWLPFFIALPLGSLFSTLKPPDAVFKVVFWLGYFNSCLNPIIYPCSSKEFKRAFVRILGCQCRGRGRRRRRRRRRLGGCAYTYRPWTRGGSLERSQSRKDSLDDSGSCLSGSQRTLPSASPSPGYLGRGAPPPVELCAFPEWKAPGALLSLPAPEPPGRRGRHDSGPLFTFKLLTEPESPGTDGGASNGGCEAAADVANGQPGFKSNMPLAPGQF
Method: as §1, §2, §3

[3] = target: T3, α1D-AR (Homo sapiens, UniProt P25100); assay: Calcium mobilization (Fluo-4) antagonism of phenylephrine in HEK293 cells expressing α1D-AR/Gα16; type: cell-based; details: phenylephrine 30 nM
T3 construct: expressed in transfected cells; host or cells: HEK293
T3 sequence (P25100 1-572): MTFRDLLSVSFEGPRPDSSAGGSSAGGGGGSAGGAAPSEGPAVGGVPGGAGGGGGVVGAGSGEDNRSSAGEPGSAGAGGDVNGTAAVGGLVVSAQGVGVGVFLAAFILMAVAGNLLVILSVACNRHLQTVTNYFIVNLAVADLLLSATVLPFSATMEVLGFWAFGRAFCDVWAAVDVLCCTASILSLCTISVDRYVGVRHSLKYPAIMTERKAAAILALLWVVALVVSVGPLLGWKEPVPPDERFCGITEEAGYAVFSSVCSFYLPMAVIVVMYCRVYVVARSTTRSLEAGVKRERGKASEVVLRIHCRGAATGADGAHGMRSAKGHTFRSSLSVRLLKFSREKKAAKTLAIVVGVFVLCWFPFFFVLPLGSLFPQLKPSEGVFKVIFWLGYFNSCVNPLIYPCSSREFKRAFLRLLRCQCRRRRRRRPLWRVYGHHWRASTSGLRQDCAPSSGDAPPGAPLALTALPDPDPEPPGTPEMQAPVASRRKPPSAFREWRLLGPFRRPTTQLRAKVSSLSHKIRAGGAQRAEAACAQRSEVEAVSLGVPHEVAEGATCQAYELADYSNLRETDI
Method: as §1, §2, §3

[4] = system: BPH Rat model; assay: Pharmacodynamic experiment in BPH rat model (testosterone propionate), urination after water load; type: in vivo, SD rats; details: BPH model rats; for frequency of urination, single urine output: relation to dose: 3 doses, water load 30 mL/kg
Method: Establishing of BPH Rat model: 6-week-old male SD rats (n=49) (body weight about 200 g), in which 37 rats were BPH model group and daily injected testosterone propionate subcutaneously, and the other 12 rats were Sham group and injected olive oil, for 4 weeks. After 4 weeks, 49 rats received gavage in a dosage of 30 mL/kg of water, and urination for each rat was observed and recorded (recording each urine output and frequency of urination within two hours).
According to the above verification results, rats having abnormal urination were firstly excluded. Then, the normal BPH model rats were divided into 2 groups, 12 rats every group, and 12 rats of Sham group were singled out as control group. Grouping principles were as follows: there were significant differences of body weight, frequency of urination within two hours, single urine output and the total amount of urination between the two groups of BPH model and Sham group, and there were no significant differences between the two groups of BPH model.
Efficacy verification experiment. The experiment had seven groups: Sham group, silodosin group (BPH-1,3-group dose) and DC037009 group (BPH-2,3-group dose). Rats received gavage in a dosage of 5 mL/kg and each dose of the compound dissolved with CMCNa. After 20 min, the rats received gavage in a dosage of 30 mL/kg water. The study time interval of different doses of the same compound was over 24 hours.

[5] = under certain total urine output

SMILES	IC50 [1]	α1B/α1A [1]	IC50 [2]	IC50 [3]	efficacy compared with positive drug ([4]; gavage)	onset dose ([4]; gavage)	frequency of urination, single urine output: relation to dose ([4]; gavage)	frequency of urination [4, 5]	single urine output [4, 5]
COc1cc2c(cc1OC)CN1CCc3cc4c(cc3[C@@H]1C2)OCO4 [DC037009, S-(−)-2,3-methylenedioxy-10,11-dimethoxy-5,8,13,13a-tetrahydro-6H-dibenzo[a,g]quinolizine]	29.8 nM	175	5210 nM	260 nM	comparable to the positive drug	1 mg/kg	dose-dependent relationship	reduce frequency of urination	significantly increase
COc1cc2c(cc1OCc1ccccc1)C[C@H]1c3cc4c(cc3CCN1C2)OCO4 [DC037016]	34.8 nM	122	4250 nM	191 nM	–	–	–	–	–
C[C@H](Cc1cc2c(c(C(N)=O)c1)N(CCCO)CC2)NCCOc1ccccc1OCC(F)(F)F [Silodosin, reference compound]	–	–	–	–	–	–	dose-dependent relationship	–	–
